Measurements from patent US8754052B2, “Treatment of nephrolithiasis and urolithiasis using 1,2,3,4,6-penta-O-galloyl-beta-D-glucose (PGG)” (Mayo Foundation for Medical Education and Research, priority 2008, dated 2014).

Tests used:
hyaluronan = experiment: Hyaluronan expression by confocal microscopy and Western blot; assay type: cell-based, Canine
Description: A middle line was scraped in the confluent MDCK 1 cells grown on coverslips using a 200 μL plastic pipette tip. The MDCK I cells on coverslips were then exposed to various concentrations (1, 5 and 10 μM) of PGG for 15 minutes or 24 hours at 37° C. The coverslips were rinsed three times with PBS, and fixed using 3.7% formaldehyde in PBS for 15 min. Cells were then rinsed three times with PBS and incubated with 1% goat serum for 1 h to block nonspecific binding sites. The goat serum was aspirated and the cells were incubated for 1 hour in a humidified chamber at 37° C. with biotinylated HABP. The cells were then washed with PBS (10 min×3) and then incubated 1 h with an avidin-conjugated Texas red (Molecular Probes, Eugene, Oreg.) in a humidified chamber at 37° C. Cells were again washed with PBS (10 min×3), and the coverslips were mounted onto glass slides using Slow-Fade (Molecular Probes, Eugene, Oreg.). The XZ section was scanned using a LSM 510 confocal microscope (Carl Zeiss, Oberkochen, Germany) equipped with an Axiovert 100M microscope and a c-Apochromat 63/1.2 numerical aperture water-immersion lens. Texas red was excited at 568-nm of an argon-krypton laser and the Emission for Texas red was collected at >585 nm.
For Western blotting, MDCK-I cells with or without scrape-wounding 24 hours earlier were harvested and washed with cold PBS; PGG (1, 5, 10 μM) was added to the medium 15 min or 24 hours prior to harvest. Cells were incubated in lysis buffer (50 mM Tris-HCl (pH 7.4), 150 mM NaCl, 1% Triton X-100, 0.1% SDS and 1 mM EDTA) supplemented with protease inhibitors ([…] and 1 mM of 4-(2-aminoethyl) benzenesulfonyl fluoride) and phosphatase inhibitors (1 mM NaF and 1 mM Na3VO4) for 20 min on ice. Lysates were centrifuged at 14,000 g for 20 min at 4° C. Lysates containing […] of protein were fractionated by SDS-PAGE and electrotransferred to a Hybond ECL transfer membrane (Amersham Pharmacia, Arlington Heights, Ill.). The blocked membranes were then incubated with primary antibodies (1:200 dilution) of HABP. […]

MDCK I cells [1] = experiment: Cytotoxicity assay (MTT colorimetric assay); assay type: cell-based, Canine
Description: (§1) Renal epithelial cells were of the Madin-Darby Canine kidney (MDCK) line, type I, derived from the distal nephron. Cells were grown in DMEM containing 25 mmol/L glucose at 37° C. in a humidified atmosphere containing […] CO2. To prepare high-density, quiescent cultures at 1×10^6 cells/35-mm plastic plate (9.62 cm^2; Nunc, Naperville, Ill., USA) were performed in DMEM containing 10% fetal bovine serum. Two days later when the cells were confluent, the established monolayer was used in the examples that follow.
The effect of PGG on cytotoxicity against MDCK 1 cells was evaluated using a MTT (3-(4,5-dimethylthiazol-2-yl)-2,5-diphenyltetrazolium bromide) colorimetric assay. PGG was dissolved with dimethylsulfoxide (DMSO). The cells were seeded onto 96-well microplates at a density of 1×10^4 cells per well in 100 μL of DMEM containing 10% fetal bovine serum. […] Cells were incubated at 37° C. for 1 h and the optical density was measured using a microplate reader (Molecular Devices Co.) set at 570 nm. Cell viability was calculated as the percentage of viable cells in the PGG treated group versus those in the untreated control group using the following equation: cell viability (%)=[OD (PGG)−OD (Blank)/OD (Control)−OD (Blank)]×100.

MDCK I cells [2] = experiment: Wound healing assay (migration after scrape wounding); assay type: cell-based, Canine; details: Canis lupus familiaris, 24 h, FIG. 3, read-out: inhibiting wound healing (migration after scrape wounding)
Description: as §1
MDCK I cells were seeded in a 35-mm plastic plate to confluent status overnight and incubated with serum-free medium for 6 h. A plastic pipette tip (200 μl size) was used to scrape a line between the MDCK1 cells that was approximately 2 to 3 mm wide across the entire culture dish. The medium was replaced by serum-free medium including various concentrations (1, 5 and 10 μM) of PGG. After incubation at 37° C. for 24 h, each plate was photographed (100×) and quantified.

[3] = Toxicology study in mice orally fed with PGG; assay type: in vivo, ICR mice; details: oral 10, 20 and 40 mg/kg
Description: To examine the optimal dose for animal study, a toxicology study was performed in mice orally fed with PGG (10, 20, and 40 mg/kg). Each group consisted of five ICR mice.

[4] = tested on: hyperoxaluric wild type rats; experiment: Ethylene glycol/ammonium chloride induced nephrolithiasis in hyperoxaluric rats; assay type: in vivo, Harlan Sprague Dawley Rats; details: for Serum BUN (mean ± SD) / Serum Calcium (mean ± SD) / Serum Creatinine (mean ± SD) / Serum Phosphate (mean ± SD) / Serum Uric acid (mean ± SD): rat serum; for Urine Calcium / Urine Mean Vol ± SD / Urine Mean pH ± SD: rat urine; for Survival (%): rats
Description: Rats were administered PGG, with and without ethylene glycol given to render the rats hyperoxaluric. The effect of PGG on renal crystal deposition was assessed, to confirm the ability of PGG to prevent crystal deposition. Urine of animals was collected and extensively studied to quantitate biochemical and functional changes, and determine the mechanism of the apparent salutary effects, in several studies outlined in Table 1. Functional effects of treated rat urine on crystal nucleation, growth, aggregation and cell interaction was also tested, and compared to urine from control animals.
Six rats per group were treated (see Table 1 below). Harlan Sprague Dawley Rats (300 g) received 0.8% ethylene glycol and 1% ammonium chloride mixed with the drinking water to induce nephrolithiasis, PGG in 2 different doses (4 mg/kg and 20 mg/kg), or both for a full 4 weeks. The doses of PGG covered the range deemed effective in mouse experiments on angiogenesis over a 2-log range factored for relative body size. PGG was administered to all rats via […]. Urine was collected for chemistries and crystalluria quantification at weekly intervals, with full urinary inhibition studies at 3 weeks, and histologic evaluation after week 3. Kidneys were examined quantitatively for the presence of cortical and medullary crystals, as well as interstitial fibrosis, by a blinded observer. Crystal deposition within cortex and medulla were also quantified under polarizing microscopy using Metamorph software.
Twenty four-hour rat urine samples were collected in a metabolic cage with sodium azide as a preservative. Urine was centrifuged, the pellet resuspended, and crystal size and quantity assessed in a hemocytometer.
Spot urine or 24-hr urine samples from individual rats under study were assayed before and after hyperoxaluric treatment. Spot urine samples were collected directly into Eppendorf tubes, centrifuged at 5,000×g for 5 min to dispose of cell debris, and stored at −80° C. until use. Urinary concentrations of oxalate, calcium and other determinants of SS were measured. SS was calculated using the EQUIL2 program.
Urine chemistry and enzymes were evaluated to measure urine pH, […] clearance, the presence and concentration of oxalate, calcium, citrate, and 8-Hydroxy-2′-deoxyguanosine (8-OH-dG). 8-OH-dG has been regarded as a potential marker of oxidative DNA damage induced by ROS. Urinary 8-OHdG was measured using a commercially available competitive 8-OHdG enzyme-linked immunosorbent assay kit. The number of oxalate crystal deposits in the kidneys was measured using a hematoxylin and eosin stain. Reverse transcriptase PCR (RT-PCR) was used to detect and quantify superoxide dismutase (SOD) mRNA and osteopontin mRNA. Immunohistochemical staining techniques were used to measure SOD and osteopontin protein expression […]. Blood chemistry was also studied to measure levels of creatinine, uric acid, phosphate, blood urea nitrogen (BUN), and malondialdehyde (MDA) in the subjects.

MDCK I cells [5] = experiment: [14C]COM crystal binding assay; assay type: cell-based, Canine
Description: Calcium oxalate monohydrate (COM) crystals were prepared from supersaturated solutions. To prepare radioactive COM crystals, [^14C]oxalic acid (30-60 mCi/mmol; ICN Biomedicals, Irivine, Calif., USA) was added to a sodium oxalate solution, producing a specific activity of 10^5 cpm/mL, and sufficient calcium chloride was then added to form a supersaturated solution. […] Dulbecco-Vogt modified Eagle's essential medium (DMEM; GIBCO, Life Technologies Inc., NY), antibiotic-antimycotics were purchased from GIBCO (Grand island, NY). Fetal bovine serum (FBS) was from JRH (Lenexa, Kans.). HEPES (N-[2-hydroxyethyl]piperazine-N′-[2-ethanesulfonic acid]), sodium bicarbonate, MTT (3-(4,5-dimethylthiazol-2-yl)-2,5-diphenyltetrazolium bromide, BSA (bovine serum albumin were obtained from Sigma Chemical Co. (St. Louis, Mo.).
as §1
MDCK I cells were treated with various concentrations (1, 5 and 10 μM) of PGG for 15 min or 24 h with and without wound damage and washed with phosphate-buffered saline (PBS, pH 7.4). Then [^14C] calcium oxalate monohydrate (COM) crystals were added to MDCK 1 cells, until a final concentration of 200 μg/mL (41.6 μg/cm^2 of cells) was achieved. The culture dishes were gently agitated for 5 seconds to uniformly distribute the crystals so that they settled to the surface of the cell monolayer under the force of gravity. After 2 min, the buffer was aspirated and the cells were washed 3 times with PBS. The cells and adherent crystals were then liquefied in 1 mL of 10% NaOH for 1 h and transferred to a scintillation vial containing 4.5 mL of Ecoscient (National Diagnostics, E. Palmetto, Fla., USA). The amount of radioactivity was measured, as described previously (See Riese, R. J. et al. Am J. Physiol (1992) 262: F177-84). Similarly, to precoat the [^14C]COM crystals with PGG, 0.4 mg [^14C]COM crystals were placed in a 5-mL tube containing 2 mL of a solution containing various concentrations (1, 5 and 10 μM) of PGG diluted in PBS. The crystals were incubated under end-over-end rotation for 15 min at room temperature, pelleted by centrifugation at 2,000 r.p.m. for 5 min, washed with PBS and then resuspended in 2 mL PBS. Two minutes later, the crystal binding activity was measured as described above.

O=C(OC[C@H]1O[C@@H](OC(=O)c2cc(O)c(O)c(O)c2)[C@H](OC(=O)c2cc(O)c(O)c(O)c2)[C@@H](OC(=O)c2cc(O)c(O)c(O)c2)[C@@H]1OC(=O)c1cc(O)c(O)c(O)c1)c1cc(O)c(O)c(O)c1 [PGG, 1,2,3,4,6-penta-O-galloyl-beta-D-glucose]
total cell hyaluronan expression by wounded monolayers (Western blot), effect versus 15 min (hyaluronan; 24 hours exposure, 1-10 μM, FIG. 6B): slightly more pronounced | hyaluronan expression on the surface of wounded MDCK 1 cells (confocal microscopy) (hyaluronan; PGG treatment 15 minutes or 24 hours, concentration dependent, FIG. 6A): attenuated | total cell hyaluronan expression by wounded monolayers (Western blot) (hyaluronan; within 15 minutes of PGG addition, FIG. 6B): decreased | cytotoxicity against MDCK I cells (MDCK I cells [1]; concentrations up to 25 uM, 24 h, FIG. 1): did not exert any significant cytotoxicity | cytotoxicity on MDCK I cells (FIG. 1 legend) (MDCK I cells [1]; except at high concentrations): lack of cytotoxicity | inhibition at 1 µM (MDCK I cells [2]; 1 μM PGG): 2% | inhibition at 5 µM (MDCK I cells [2]; 5 μM PGG): 26% | inhibition at 10 µM (MDCK I cells [2]; 10 μM PGG): 49% | body weight of mice, PGG versus control groups ([3]; FIG. 7): no significant difference | hematological values ([3]; FIG. 9): did not affect | GOT and GPT levels ([3]; FIG. 10): did not affect | shapes and weights of organs (spleen, liver, kidney, lung) ([3]; FIGS. 8 and 11): did not affect | survival rate compared with normal group ([4]; 20 mg/kg PGG): mirrored that of those in the normal group | Serum BUN (mean ± SD) ([4]; PGG 4 mg/kg + EG): 24.6 ± 3.9 mg/dL | Serum Calcium (mean ± SD) ([4]; PGG 4 mg/kg + EG): 10.9 ± 1.1 mg/dL | Serum Creatinine (mean ± SD) ([4]; PGG 4 mg/kg + EG): 0.6 ± 0.5 mg/dL | Serum Phosphate (mean ± SD) ([4]; PGG 4 mg/kg + EG): 10.7 ± 1.4 mg/dL | Serum Uric acid (mean ± SD) ([4]; PGG 4 mg/kg + EG): 2.9 ± 3.2 mg/dL | Urine Calcium ([4]; PGG 4 mg/kg + EG): 2.95 ± 0.31 | Urine Mean Vol ± SD ([4]; PGG 4 mg/kg + EG): 33.0 ± 3.74 mL | Urine Mean pH ± SD ([4]; PGG 4 mg/kg + EG): 6.7 ± 1.2 | Survival (%) ([4]; PGG 4 mg/kg): 83% | Serum BUN (mean ± SD) ([4]; PGG 20 mg/kg + EG): 23.3 ± 3.7 mg/dL | Serum Calcium (mean ± SD) ([4]; PGG 20 mg/kg + EG): 10.5 ± 0.3 mg/dL | Serum Creatinine (mean ± SD) ([4]; PGG 20 mg/kg + EG): 0.6 ± 0.1 mg/dL | Serum Phosphate (mean ± SD) ([4]; PGG 20 mg/kg + EG): 9.4 ± 0.8 mg/dL | Serum Uric acid (mean ± SD) ([4]; PGG 20 mg/kg + EG): 1.6 ± 1.0 mg/dL | Urine Calcium ([4]; PGG 20 mg/kg + EG): 3.52 ± 0.31 | Urine Mean Vol ± SD ([4]; PGG 20 mg/kg + EG): 34.7 ± 3.59 mL | Urine Mean pH ± SD ([4]; PGG 20 mg/kg + EG): 7.1 ± 0.8 | Survival (%) ([4]; PGG 20 mg/kg): 100% | survival time of the rats ([4]; upon administration of PGG, FIG. 12 and Table 4): increased | number of stones (calcium oxalate in urine) versus stone group ([4]; urine at 21 days, FIG. 14): considerably less | COM crystal adhesion to MDCK I cells (MDCK I cells [5]; PGG added to the buffer, concentration-dependent, FIG. 4A): significantly reduced | COM adhesion to scrape-wounded MDCK I cells (MDCK I cells [5]; after 15 min or 24 h incubation time, FIGS. 2A and 2B): significantly inhibited | crystal binding by PGG-pretreated MDCK I cells (MDCK I cells [5]; cells pretreated 15 minutes or 24 hours, FIG. 5): bound less crystals | binding of PGG-precoated COM crystals to cells (MDCK I cells [5]; crystals precoated with PGG 15 min, concentration-dependent, FIG. 4B): decrease their subsequent binding to cells
